# Results reported in patent US20240350458A1, “14-3-3 PROTEIN MODULATORS AS ANTITUMOR AGENTS” (priority 2021, published 2024).
# “Also recorded” adds a separate entry of the source.
# Legend:
# [1] = tested on: ATC-derived cell lines (Sw, FRO, 8505c); assay: MTT proliferation assay, three ATC-derived cell lines; assay type: cell-based; conditions: Homo sapiens; three ATC-derived cell lines (Sw, FRO, 8505c), 72 h; read-out: IC50 value after 72 h exposure
# Description: (§1) The antiproliferative activity was assessed by MTT proliferation assay (Table III) The anticancer activity was also investigated in a rare and lethal cancer (i.e. anaplastic thyroid cancer) by the use of three ATC-derived cell lines (Sw, FRO, 8505c). Again, the IC50 value after 72 h exposure was in the range of 10 to 50 nM. The same trend was also observed in four melanoma cell lines A2058, M14 (genotype BRAFV600E), SKMEL 197 e MEWO (genotype BRAF wild-type).
# NCI-H69 = assay: MTT proliferation assay, SCLC; assay type: cell-based; conditions: Homo sapiens
# Description: as §1
# (§2) Table III IC50 expressed in μM and Emax (at 30 μM) for FC86 after 72 h exposure, were calculated by MTT assay
# NCI-H82 = assay: MTT proliferation assay, SCLC; assay type: cell-based; conditions: Homo sapiens
# Description: as §1, §2
# 6647 = assay: MTT proliferation assay, Ewing sarcoma; assay type: cell-based
# Description: as §1, §2
# A673 = assay: MTT proliferation assay, Ewing sarcoma; assay type: cell-based; conditions: Homo sapiens
# Description: as §1, §2
# SKNMC = assay: MTT proliferation assay, Ewing sarcoma; assay type: cell-based; conditions: Homo sapiens, SK-N-MC, 72 h exposure
# Description: as §1, §2
# TC-32 = assay: MTT proliferation assay, Ewing sarcoma; assay type: cell-based; conditions: Homo sapiens
# Description: as §1, §2
# TC-71 = assay: MTT proliferation assay, Ewing sarcoma; assay type: cell-based
# Description: as §1, §2
# [2] = tested on: healthy human thyroid cells; assay: Toxicity in healthy human thyroid cells (trypan blue staining); assay type: cell-based; conditions: 72 h
# Description: FRTL5 were assayed with MTT, while healthy human thyroid cells by trypan blue staining. The percentage of dead cells, as counted after trypan blue staining, was around 10-15% at the dose of 800 nM of FC86.
# To assess the toxicity FC86 was evaluated against a primary healthy human thyroid cell line at concentrations ranging from 3 nM to 800 nM for 72 h (FIG. 3). Data collected reveal that FC86 is not toxic for healthy human thyroid cells at concentration […] 400 nM. Such a concentration is 20× fold higher than IC50 detected in tumour cell lines.
# 410 human kinases = assay: ProQinase kinase profiling; assay type: biochemical; conditions: at 1 and 0.1 μM
# 14-3-3 [3] = assay: DARTS in U937 cells; assay type: binding; conditions: 50 nM, 2 h, MS and western blot
# Description: FIG. 4 represents DARTS experiments results as reported in example 6: Proteins obtained from U937 cells incubated with 50 nM FC86 or with the medium for 2 h underwent subtilisin-catalyzed digestion.
# (§3) Current protocols in chemical biology 2011, 3:163-180]. […] The same DARTS experiments were also performed by incubating glioblastoma cell lines (U87MG) with subtoxic amounts of FC86 and data collected confirmed the 14-3-3 as target protein. (FIG. 5).
# (§4) The identification of putative targets of FC86 was achieved by Drug Affinity Responsive Target Stability (DARTS) experiments. Cancer cells were incubated with a sub-toxic concentration (50 nM for U937 and 5 μM for U87MG) of FC86 for 2 h or with the medium (control cells). After the treatments, treated and control cells were collected and whole protein extracts were prepared by lysing cells in 20 mM Tris-HCl (pH 7.5), 150 mM NaCl, 1 mM EDTA, 1 mM EGTA, 1% NP-40, 1% sodium deoxycholate, 2.5 mM sodium pyrophosphate, 1 mM β-glycerophosphate, 1 mM Na3VO4, 1 μg/ml leupeptin. Protein concentration was determined by the Bradford protein assay using bovine serum albumin as standard. […] Parameters sets were: trypsin cleavage; carbamidomethylation of cysteine as a fixed modification and methionine oxidation as a variable modification; a maximum of two missed cleavages; false discovery rate (FDR), calculated by searching the decoy database, 0.05. […]
# 14-3-3 [4] = assay: DARTS in U87MG cells; assay type: binding; conditions: 5 μM, 2 h, MS and western blot
# Description: FIG. 5 represents DARTS experiments results as reported in example 6: Proteins obtained from U87MG cells incubated with 5 μM of FC86 or with the medium for 2 h underwent subtilisin-catalyzed digestion.
# as §3, §4
# [5] = tested on: peripheral blood mononuclear cells (PBMC); assay: Annexin V apoptosis in PBMC from healthy donors (FACS); assay type: cell-based; conditions: 200 nM, 48 h
# Description: FC86 was incubated with cells at the concentration of 200 nM for 48 h. Annexin V was detected by flow cytometry (FACS). PBMCs (Peripheral blood mononuclear cells) were not affected by FC86.
compound,measurement,setting,value
"Cc1ccc(S(=O)(=O)Nc2ccc3c(c2)/C(=C/c2cccs2)C(=O)N3)cc1 [FC86, N-[(3Z)-2-oxo-3-(thiophene-2-ylmethylidene)-2,3-dihydro-1H-indol-5-yl]-4-methylbenzenesulfonamide]",IC50,[1],10 to 50 nM
same,Emax at 30 µM,"NCI-H69; SCLC NCI-H69, 30 μM, 72 h",80%
same,IC50,"NCI-H69; SCLC NCI-H69, 72 h exposure",1400 nM
same,Emax at 30 µM,"NCI-H82; SCLC NCI-H82, 30 μM, 72 h",55%
same,IC50,"NCI-H82; SCLC NCI-H82, 72 h exposure",3000 nM
same,Emax at 30 µM,"6647; Ewing Sarcoma 6647, 30 μM, 72 h",75%
same,IC50,"6647; Ewing Sarcoma 6647, 72 h exposure",90 nM
same,Emax at 30 µM,"A673; Ewing Sarcoma A673, 30 μM, 72 h",85%
same,IC50,"A673; Ewing Sarcoma A673, 72 h exposure",3200 nM
same,IC50,SKNMC,> 30000 nM
same,Emax at 30 µM,"TC-32; Ewing Sarcoma TC-32, 30 μM, 72 h",75%
same,IC50,"TC-32; Ewing Sarcoma TC-32, 72 h exposure",30 nM
same,Emax at 30 µM,"TC-71; Ewing Sarcoma TC-71, 30 μM, 72 h",95%
same,IC50,"TC-71; Ewing Sarcoma TC-71, 72 h exposure",800 nM
same,toxicity for healthy human thyroid cells,[2]; at concentration higher than 400 nM,not toxic
same,percentage of dead cells (trypan blue staining),"[2]; healthy human thyroid cells, 800 nM",10-15%
same,activity against 410 human kinases,410 human kinases,lack of activity against any of them
same,resistance of 14-3-3 to subtilisin proteolysis (DARTS),14-3-3 [3],significant protection from proteolysis; also recorded: significant increment of resistance to proteolysis
same,resistance of 14-3-3 to subtilisin proteolysis (DARTS),14-3-3 [4],significant increment of resistance to proteolysis
same,apoptosis (Annexin V) in PBMC,[5],did not detect any sign of apoptosis; also recorded: not affected
